Laboratory results: ChEMBL document CHEMBL5150025, “Exploratory study of oxatomide derivatives with high P2X7 receptor inhibitory activity” (Bioorg Med Chem Lett, 2022)

Each compound was assayed against T1, P2X purinoceptor 7 (Homo sapiens, UniProt Q99572) (assay: Antagonist activity at P2X7 receptor in human RPMI-8226 cells assessed as inhibition of ATP-induced Ca2+ influx by fura-2 staining based assay). Details: not given.
T1 sequence (Q99572 whole entry): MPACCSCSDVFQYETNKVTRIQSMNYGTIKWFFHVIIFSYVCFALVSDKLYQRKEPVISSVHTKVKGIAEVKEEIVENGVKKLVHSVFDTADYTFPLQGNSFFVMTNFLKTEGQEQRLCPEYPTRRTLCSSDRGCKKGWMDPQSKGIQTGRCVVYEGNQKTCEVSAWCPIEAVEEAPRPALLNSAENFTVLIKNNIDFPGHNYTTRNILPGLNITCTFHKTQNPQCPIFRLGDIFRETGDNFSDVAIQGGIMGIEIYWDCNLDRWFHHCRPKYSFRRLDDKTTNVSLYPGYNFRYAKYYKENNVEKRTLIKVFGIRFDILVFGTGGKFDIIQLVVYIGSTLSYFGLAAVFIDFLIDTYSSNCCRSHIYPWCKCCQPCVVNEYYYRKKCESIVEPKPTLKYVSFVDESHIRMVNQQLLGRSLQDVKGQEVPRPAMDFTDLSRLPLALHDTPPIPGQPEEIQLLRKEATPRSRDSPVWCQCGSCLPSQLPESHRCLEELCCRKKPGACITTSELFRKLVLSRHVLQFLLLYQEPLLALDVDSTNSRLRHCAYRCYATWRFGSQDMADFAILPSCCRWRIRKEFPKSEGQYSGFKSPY
Type: cell-based

SMILES | IC50 [µM]
Cc1cccc2ccn(CCCCN3CCN(C(c4ccccc4)c4ccccc4)CC3)c12 | 2.3
N#Cc1ccc2c(ccn2CCCCN2CCN(C(c3ccccc3)c3ccccc3)CC2)c1 | 3.8
Cc1ccc2ccn(CCCCN3CCN(C(c4ccccc4)c4ccccc4)CC3)c2c1 | 6.5
Cc1nnnn1CCCCN1CCN(C(c2ccccc2)c2ccccc2)CC1 | 4.5
Cc1ccc(S(=O)(=O)N2CCN(CCCn3c(=O)[nH]c4ccccc43)CC2)cc1 | > 10
COC(=O)c1cccc2ccn(CCCCN3CCN(C(c4ccccc4)c4ccccc4)CC3)c12 | > 10
N#Cc1cn(CCCCN2CCN(C(c3ccccc3)c3ccccc3)CC2)c2ccccc12 | 1.5
O=c1[nH]c2ccccc2n1CCCN1CCC(=C(c2ccccc2)c2ccccc2)CC1 | 2.4
c1ccc(C(c2ccccc2)N2CCN(CCCCn3cncn3)CC2)cc1 | > 10
Cc1nccn1CCCCN1CCN(C(c2ccccc2)c2ccccc2)CC1 | 3.4
O=c1[nH]c2ccccc2n1CCCN1CCN(S(=O)(=O)c2ccc(F)cc2)CC1 | > 10
O=c1[nH]c2ccccc2n1CCCN1CCC(C(O)(c2ccccc2)c2ccccc2)CC1 | 7.5
Cc1cccc2c1ccn2CCCCN1CCN(C(c2ccccc2)c2ccccc2)CC1 | 5.3
O=C(C(c1ccccc1)c1ccccc1)N1CCN(CCCn2c(=O)[nH]c3ccccc32)CC1 | 7.8
O=c1[nH]c2ccccc2n1CCCN1CCN(C2c3ccccc3CCc3ccccc32)CC1 | 5.2
COc1ccc2c(ccn2CCCCN2CCN(C(c3ccccc3)c3ccccc3)CC2)c1 | > 10
O=c1[nH]c2ccccc2n1CCCN1CCN(S(=O)(=O)c2ccc([N+](=O)[O-])cc2)CC1 | > 10
O=c1[nH]c2ccccc2n1C/C=C/CN1CCN(C(c2ccccc2)c2ccccc2)CC1 | > 10
c1ccc(-c2nnnn2CCCCN2CCN(C(c3ccccc3)c3ccccc3)CC2)cc1 | 3.2

These reach a lower IC50. Values come first.

IC50 [µM] | SMILES
1.2 | c1ccc(-c2nc3ccccc3n2CCCCN2CCN(C(c3ccccc3)c3ccccc3)CC2)cc1
0.95 | O=c1[nH]c2ccccc2n1CCN1CCN(C(c2ccccc2)c2ccccc2)CC1
0.85 | Cc1nc2ccccc2n1CCCCN1CCN(C(c2ccccc2)c2ccccc2)CC1
0.83 | O=c1[nH]c2ccccc2n1CCCN1CCN(C(c2ccccc2)c2ccccc2)CC1 [OXATOMIDE]
0.77 | Cc1cc2ncn(CCCCN3CCN(C(c4ccccc4)c4ccccc4)CC3)c2cc1C
0.56 | O=c1[nH]c2ccccc2n1CCCCCN1CCN(C(c2ccccc2)c2ccccc2)CC1
0.48 | c1ccc(C(c2ccccc2)N2CCN(CCCCn3nnc4ccccc43)CC2)cc1
0.46 | c1ccc(C(c2ccccc2)N2CCN(CCCCn3ccc4cnccc43)CC2)cc1
0.32 | c1ccc(C(c2ccccc2)N2CCN(CCCCn3ccc4ncccc43)CC2)cc1
0.24 | c1ccc(C(c2ccccc2)N2CCN(CCCCn3ccc4ccncc43)CC2)cc1
0.19 | c1ccc(C(c2ccccc2)N2CCN(CCCCn3ncc4ccccc43)CC2)cc1
0.18 | O=c1[nH]c2ccccc2n1CCCCN1CCN(C(c2ccccc2)c2ccccc2)CC1
0.18 | c1ccc(C(c2ccccc2)N2CCN(CCCCn3ccc4cccnc43)CC2)cc1
0.18 | c1ccc(C(c2ccccc2)N2CCN(CCCCn3cnc4ccccc43)CC2)cc1
0.15 | Fc1cccc2c1ccn2CCCCN1CCN(C(c2ccccc2)c2ccccc2)CC1
0.13 | Fc1cc2ccn(CCCCN3CCN(C(c4ccccc4)c4ccccc4)CC3)c2cc1F
0.12 | Fc1ccc2c(ccn2CCCCN2CCN(C(c3ccccc3)c3ccccc3)CC2)c1
0.12 | c1ccc(C(c2ccccc2)N2CCN(CCCCn3ccc4ccccc43)CC2)cc1
0.11 | Fc1ccc2ccn(CCCCN3CCN(C(c4ccccc4)c4ccccc4)CC3)c2c1

The compounds below were run against T2, P2X purinoceptor 7 (Homo sapiens) (UniProt Q99572) (assay: Antagonist activity at P2X7 receptor in human RPMI-8226 cells assessed as inhibition of ATP-induced Ca2+ influx at 10 uM by fura-2 staining based assay relative to control). Details: filed as antagonist.
T2 sequence (whole entry): T1 sequence (Q99572 whole entry)
Type: cell-based

SMILES | inhibition [%]
Cc1ccc(S(=O)(=O)N2CCN(CCCn3c(=O)[nH]c4ccccc43)CC2)cc1 | 64
c1ccc(C(c2ccccc2)N2CCN(CCCCn3cncn3)CC2)cc1 | 87
O=c1[nH]c2ccccc2n1CCCN1CCN(S(=O)(=O)c2ccc(F)cc2)CC1 | 87
COc1ccc2c(ccn2CCCCN2CCN(C(c3ccccc3)c3ccccc3)CC2)c1 | 54
O=c1[nH]c2ccccc2n1CCCN1CCN(S(=O)(=O)c2ccc([N+](=O)[O-])cc2)CC1 | 72
O=c1[nH]c2ccccc2n1C/C=C/CN1CCN(C(c2ccccc2)c2ccccc2)CC1 | 81
